Assay [1] concerns NF-κB. The conditions noted are these: cited from earlier work.
Assay [2] has as its system NF-κB. In words: Inhibition of the TNFα-induced activation of NF-κB, 293T/NF-κB-luc luciferase reporter cell assay. Type of assay: cell-based, human. The conditions noted are these: 7 hours; for activity as inhibitor of the TNFα-induced activation of NF-κB in the preliminary screen: screened at 15 μM, FIGS. 1-5; for IC50: Homo sapiens, HEK-293T, 293T/NF-κB-luc cells, TNFα 20 ng/ml, triplicate, read-out: IC50 for inhibition of the TNFα-induced activation of NFκB. Here is the method: The cells were maintained in Dulbecco's Modified Eagle's Medium (DMEM—high glucose containing 4 mM glutamine) supplemented with 10% fetal bovine serum (FBS), 1 mM sodium pyruvate, 100 units/ml penicillin, 100 μg/ml streptomycin and 100 μg/ml hygromycin (Gibco/Invitrogen, Carlsbad, Calif.) to maintain cell selection. […] The following day cells were fed fresh media 1 hour prior to treatment. […] Plate wells were gently washed with phosphate buffered saline, pH 7.4, and lysed with 1x passive lysis buffer (Promega, Madison, Wis.). The subsequent lysates were analyzed with the Luciferase Assay System (Promega) utilizing a TD-20/20 luminometer (Turner Designs, Sunnyvale, Calif.). The firefly luciferase relative light units were normalized to protein (mg/ml) with BCA™ Protein Assay Kit (Pierce, Rockford, Ill.) and standardized to percent of control (TNFα control).
(In general: Reporter assays use an easily measured gene product as a stand-in for the process of interest.)

Another assay concerns AP-1. Kind of assay: Inhibition of the TPA-induced activation of AP-1, 293T/AP-1-luc luciferase reporter cell assay. Type of assay: cell-based, human. The conditions noted are these: 293T/AP-1-luc cells, TPA 10 ng/ml, 24 hours; for IC50: Homo sapiens. Here is the method:
An AP-1 reporter stable cell line derived from human 293T embryonic kidney cells transfected with a luciferase reporter construct containing three AP-1 binding sites in the promoter (293T/AP-1-luc, Panomics, Inc., Redwood City, Calif.) was grown in a humidified atmosphere at 37° C. in 5% CO2/95% air. The cells were maintained in Dulbecco's Modified Eagle's Medium (DMEM—high glucose containing 4 mM glutamine) supplemented with 10% fetal bovine serum (FBS), 1 mM sodium pyruvate, 100 units/ml penicillin, 100 μg/ml streptomycin and 100 μg/ml hygromycin (Gibco/Invitrogen, Carlsbad, Calif.) to maintain cell selection. One day prior to treatment, the 293T/AP-1-luc cells were plated into 24-well cell culture plates (Costar, Cambridge, Ma.) in the above media without hygromycin. The following day, the cells, which were at approximately 60% confluency, were fed fresh media with or without TPA, 10 ng/ml, (Calbiochem) and immediately treated with curcumin or analog prepared in DMSO stock solutions. The cells were placed again in a humidified atmosphere at 37° C. in 5% CO2/95% air for 24 hours. Plate wells were gently washed with phosphate buffered saline, pH 7.4, and lysed with 1x passive lysis buffer (Promega, Madison, Wis.). The subsequent lysates were analyzed with the Luciferase Assay System (Promega) utilizing a TD-20/20 luminometer (Turner Designs, Sunnyvale, Calif.). The firefly luciferase relative light units were normalized to protein (mg/ml) with BCA™ Protein Assay Kit (Pierce, Rockford, Ill.) and standardized to percent of control (TPA control).

The nature of assay [3]: TRAP assay (total radical-trapping anti-oxidant parameter). From the text: (§1) The total radical-trapping anti-oxidant parameter assay (TRAP assay) measures the ability of an analog to react with the pre-formed radical monocation of 2,2′-azinobis-(3-ethylbenzothiazoline-6-sulfonic acid) (ABTS-^+). The ferric reducing/anti-oxidant power assay (FRAP assay) measures the ability of an analog to reduce a ferric tripyridyltriazine complex.
(§2) In both colorimetric assays, the vitamin E analog Trolox was used as a control.
(§3) The anti-oxidant activities of certain stilbene analogs according to the present invention were determined using two standard assays. See, Schlesier, et al., Free Rad Res. 2002;36:177-187. The total radical-trapping anti-oxidant parameter assay (TRAP assay) measures the ability of an analog to react with the pre-formed radical monocation of 2,2′-azinobis-(3-ethylbenzothiazoline-6-sulfonic acid) (ABTS^+). See, Re, et al., Free Rad Biol Med, 26:1231-1237 (1999). ABTS was reacted with potassium persulfate in the dark, overnight, to generate the colored ABTS^+ radical cation, which has an absorption maximum at 734 nm. The activities of curcumin and analogs were determined by their abilities to quench the color of the radical cation. The ferric reducing/anti-oxidant power assay (FRAP assay) measures the ability of an analog to reduce a ferric tripyridyltriazine complex. See, Benzie and Strain, Meth Enzymol, 299:15-27 (1999). The ferric complex of 2,4,6-tripyridyl-s-triazine was prepared at acidic pH, and the anti-oxidant activities of curcumin and analogs were determined by their abilities to reduce the ferric complex to the ferrous complex, monitored by formation of the ferrous complex at 593 nm. In both colorimetric assays, the vitamin E analog Trolox was used as a control.

In another assay the test system is COX-2 mRNA. In words: Inhibition of LPS-induced expression of COX-2 mRNA in BV-2 microglial cells (qRT-PCR). It counts as cell-based, mouse. The conditions noted are these: BV-2 cells, LPS 0.2 μg/ml, 24 hours; for inhibition of LPS-induced COX-2 mRNA compared with resveratrol: 0.15 μM. (In general: Real-time PCR tracks product formation cycle by cycle.)
The nature of assay [4]: FRAP assay (ferric reducing/anti-oxidant power).
Description: as §1, §2
as §3, with “ABTS was reacted with potassium persulfate in the dark, overnight, to generate the colored ABTS^+ radical cation, which has an absorption maximum at 734 nm.” left out, “The ferric reducing/anti-oxidant power assay (FRAP assay) measures the ability of an analog to reduce a ferric tripyridyltriazine complex. See, Benzie and Strain, Meth Enzymol, 299:15-27 (1999).” left out, “In both colorimetric assays, the vitamin E analog Trolox was used as a control.” left out

As to `C(=Cc1ccccc1)c1ccccc1` [stilbene], the “inhibition of TNF-induced activation of NF-κB (literature)” value in the assay on NF-κB [1] is “inactive”.

Take `COc1ccc(/C=C/c2ccccc2)cc1O` [4s, (E)-3-Hydroxy-4-methoxystilbene]: in the assay with NF-κB [2], the “activity as inhibitor of the TNFα-induced activation of NF-κB in the preliminary screen” value (from here on “activity as inhibitor”) is recorded as “considerably more active than resveratrol”.

As to `COc1cccc(/C=C/c2ccccc2)c1OC` [4o, (E)-2,3-Dimethoxystilbene], in the assay with NF-κB [2], the “activity as inhibitor” value is “retained very little activity”.

Take `COc1ccc(/C=C/c2ccccn2)cc1`: in the assay with AP-1, inhibition was half-maximal at 2100 ± 400 nM (IC50).

On to `COc1ccc(/C=C/c2ccccc2)c(OC)c1` [4u, (E)-2,4-Dimethoxystilbene], for which the “activity as inhibitor” value in the assay with NF-κB [2] is given as “especially active”.

In the case of `Cc1ccc(/C=C/c2ccccc2)cc1` [4d, (E)-4-Methylstilbene], the IC50 in the assay on AP-1 worked out at 1600 ± 600 nM.

`COc1ccc(/C=C/c2ccc(OC)cc2)cc1` [6b, (E)-4,4′-Dimethoxystilbene]: in the assay with NF-κB [2], the “activity as inhibitor” value is “retained very little activity”.

Turning to `COc1ccc(/C=C/c2cccc(C)c2)cc1` [6i, (E)-4′-Methoxy-3-methylstilbene], the IC50 in the assay with AP-1 was 1000 ± 120 nM; in the assay with NF-κB [2] it was 800 ± 200 nM.

For `COc1ccc(/C=C/c2ccc(C)cc2)cc1` [6d, (E)-4′-Methoxy-4-methylstilbene], the IC50 in the assay with AP-1 was determined as 800 ± 30 nM; in the assay on NF-κB [2], 900 ± 100 nM.

`COc1ccc(/C=C/c2cc(OC)cc(OC)c2)cc1` [6f, (E)-3,4′,5-Trimethoxystilbene] registered an IC50 in the assay with AP-1 of 3800 ± 1100 nM. Besides, in the assay on NF-κB [2], the “activity as inhibitor” value is listed as “especially active”.

For `COc1ccc(/C=C/c2cccc(OC)c2)cc1` [6r, (E)-3,4′-Dimethoxystilbene], in the assay on AP-1, the IC50 was determined as 700 ± 40 nM. Moreover, in the assay with NF-κB [2], the IC50 is 600 ± 100 nM and the “activity as inhibitor” value is given as “especially active”.

Regarding `COc1ccc(/C=C/c2cccc(O)c2O)cc1` [6cc, (E)-2,3-Dihydroxy-4′-methoxystilbene], the “activity as inhibitor” value in the assay with NF-κB [2] is listed as “considerably more active than resveratrol”.

Regarding `COc1ccc(/C=C/c2ccccc2F)cc1` [6p, (E)-2-Fluoro-4′-methoxystilbene], in assay [3], the “anti-oxidant activity (TRAP or FRAP assay, not told apart)” value is “does not exhibit anti-oxidant activity”. Also, the figures for the IC50 in the assay on AP-1 and in the assay with NF-κB [2] were 800 ± 100 nM and 150 nM, respectively. Further, the “inhibition of LPS-induced COX-2 mRNA compared with resveratrol” value in the assay on COX-2 mRNA was “almost as effective as 4 μM resveratrol”.

With `CN(C)c1ccc(/C=C/c2ccccc2)cc1` [4cc, (E)-4-N,N-Dimethylaminostilbene], the “anti-oxidant activity in the FRAP assay” value in assay [4] is “exhibits anti-oxidant activity”. For the same molecule, in assay [3], the “anti-oxidant activity in the TRAP assay” value is “exhibits anti-oxidant activity” and the “anti-oxidant activity (TRAP or FRAP assay, not told apart)” value is listed as “retained anti-oxidant activity”. Further, the IC50 in the assay with AP-1 was determined as 1100 ± 100 nM. The IC50 with NF-κB [2] amounted to 150 nM. For the same molecule, the “inhibition of LPS-induced COX-2 mRNA compared with resveratrol” value in the assay on COX-2 mRNA was “almost as effective as 4 μM resveratrol”.

Take `COc1ccc(/C=C/c2ccc(O)c(O)c2)cc1` [6x, (E)-3,4-Dihydroxy-4′-methoxystilbene]: in the assay on NF-κB [2], the IC50 is 600 ± 400 nM and the “activity as inhibitor” value was “considerably more active than resveratrol”.

`COc1ccc(/C=C/c2cccc(Cl)c2)cc1` [6h, (E)-3-Chloro-4′-methoxystilbene]: the IC50 in the assay with AP-1 was determined as 800 ± 150 nM; in the assay on NF-κB [2] it was 1000 ± 100 nM.

For the molecule `COc1ccc(/C=C/c2ccccc2Cl)cc1` [6j, (E)-2-Chloro-4′-methoxystilbene], in the assay on NF-κB [2], the half-inhibitory concentration (IC50) was 1500 ± 30 nM.

Regarding `Oc1ccc(/C=C/c2cc(O)cc(O)c2)cc1` [resveratrol, 3,4′,5-trihydroxystilbene, reference compound], the “effect on TPA-induced AP-1 activation” value in the assay with AP-1 was “activated”. Besides, the “inhibition of TNF-induced activation of NF-κB (literature)” value in the assay with NF-κB [1] is on record as “inhibits TNF-induced activation of NF-κB”. For the same molecule, the IC50 in the assay on NF-κB [2] amounted to 20000 ± 3000 nM. Also, the “inhibition of LPS-induced COX-2 mRNA” value in the assay on COX-2 mRNA (4 μM) is listed as “about 50%”. Further, in the assay with COX-2 mRNA (20 μM), the “suppression of LPS-induced COX-2 mRNA” value is given as “markedly suppressed”.

Regarding `COc1ccc(/C=C/c2cccc(F)c2)cc1` [6n, (E)-3-Fluoro-4′-methoxystilbene], in the assay on AP-1, 500 ± 100 nM corresponded to half-maximal inhibition (IC50).

In turn, `CCOc1ccc(/C=C/c2ccccc2)cc1` [4k, (E)-4-Ethoxystilbene] yielded an IC50 in the assay with AP-1 of 800 ± 100 nM.

In the case of `COc1ccc(/C=C/c2cccc(OC)c2OC)cc1` [6o, (E)-2,3,4′-Trimethoxystilbene], in the assay with AP-1, the IC50 was determined as 2400 ± 700 nM. Moreover, in the assay on NF-κB [2], the “activity as inhibitor” value was “especially active”.

For `COc1ccc(/C=C/c2ccccc2)cc1` [4b, (E)-4-Methoxystilbene], the IC50 with AP-1 is 1300 ± 30 nM. The “activity as inhibitor” value in the assay on NF-κB [2] was “especially active”.

For orientation: IC50 means the concentration at which inhibition is half-maximal.

Values taken from patent publication US8980954B2, “Substituted cis- and trans-stilbenes as therapeutic agents” (STC.UNM, priority 2006, dated 2015).
